Results from US11053204B2, “Pyrimidinyloxy benzene derivatives as herbicides” (FMC Corporation, priority 2015, dated 2021).

Columns and labels:
Format in all cases: in vivo
[1] = test system: blackgrass (Alopecurus myosuroides); experiment: Test C preemergence, plant response rating; conditions: Preemergence
Method in brief: (§1)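 After sowing in loam–sand blend or silt loam, pots were sprayed preemergence; separately grown 1- to 4-leaf plants were sprayed postemergence. Following 13 to 15 d under greenhouse conditions, injury was rated visually on a 0 to 100 scale.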

corn (Zea mays) [2] = experiment: Test C preemergence, plant response rating; conditions: Preemergence
Method in brief: as §1

[3] = test system: crabgrass, large (large crabgrass, Digitaria sanguinalis); experiment: Test C preemergence, plant response rating; conditions: Preemergence
Method in brief: as §1

[4] = test system: foxtail, giant (giant foxtail, Setaria faberii); experiment: Test C preemergence, plant response rating; conditions: Preemergence
Method in brief: as §1

[5] = test system: lambsquarters (Chenopodium album); experiment: Test C preemergence, plant response rating; conditions: Preemergence
Method in brief: as §1

[6] = test system: morningglory (Ipomoea coccinea); experiment: Test C preemergence, plant response rating; conditions: Preemergence
Method in brief: as §1

[7] = test system: nutsedge, yellow (yellow nutsedge, Cyperus esculentus); experiment: Test C preemergence, plant response rating; conditions: Preemergence
Method in brief: as §1

[8] = test system: oilseed rape (Brassica napus); experiment: Test C preemergence, plant response rating; conditions: Preemergence
Method in brief: as §1

[9] = test system: ryegrass, Italian (Italian ryegrass, Lolium multiflorum); experiment: Test C preemergence, plant response rating; conditions: Preemergence
Method in brief: as §1

soybean (Glycine max) [10] = experiment: Test C preemergence, plant response rating; conditions: Preemergence
Method in brief: as §1

[11] = test system: velvetleaf (Abutilon theophrasti); experiment: Test C preemergence, plant response rating; conditions: Preemergence
Method in brief: as §1

[12] = test system: waterhemp (common waterhemp, Amaranthus rudis); experiment: Test C preemergence, plant response rating; conditions: Preemergence
Method in brief: as §1

[13] = test system: wheat (winter wheat, Triticum aestivum); experiment: Test C preemergence, plant response rating; conditions: Preemergence
Method in brief: as §1

corn (Zea mays) [14] = experiment: Test C postemergence, plant response rating; conditions: for Corn plant response rating: scale 0 to 100 (0 no effect, 100 complete control)
Method in brief: as §1

[15] = test system: crabgrass, large (large crabgrass, Digitaria sanguinalis); experiment: Test C postemergence, plant response rating; conditions: for Crabgrass, Large plant response rating: scale 0 to 100 (0 no effect, 100 complete control)
Method in brief: as §1

[16] = test system: foxtail, giant (giant foxtail, Setaria faberii); experiment: Test C postemergence, plant response rating; conditions: for Foxtail, Giant plant response rating: scale 0 to 100 (0 no effect, 100 complete control)
Method in brief: as §1

[17] = test system: galium (catchweed bedstraw, Galium aparine); experiment: Test C postemergence, plant response rating; conditions: for Galium plant response rating: scale 0 to 100 (0 no effect, 100 complete control)
Method in brief: as §1

kochia (Kochia scoparia) = experiment: Test C postemergence, plant response rating; conditions: for Kochia plant response rating: scale 0 to 100 (0 no effect, 100 complete control)
Method in brief: as §1

[18] = test system: oilseed rape (Brassica napus); experiment: Test C postemergence, plant response rating; conditions: for Oilseed Rape plant response rating: scale 0 to 100 (0 no effect, 100 complete control)
Method in brief: as §1

soybean (Glycine max) [19] = experiment: Test C postemergence, plant response rating; conditions: for Soybean plant response rating: scale 0 to 100 (0 no effect, 100 complete control)
Method in brief: as §1

[20] = test system: waterhemp (common waterhemp, Amaranthus rudis); experiment: Test C postemergence, plant response rating
Method in brief: as §1

FC(F)(F)CCCc1c(Br)cccc1Oc1ncc(Cl)cn1 [Compound 89]
Plant response rating, Blackgrass ([1]; 125 g ai/ha, scale of 0 to 100): 90
Plant response rating, Blackgrass ([1]; 16 g ai/ha, scale 0 to 100): 5
Plant response rating, Blackgrass ([1]; 31 g ai/ha, scale 0 to 100): 15
Plant response rating, Blackgrass ([1]; 62 g ai/ha, scale 0 to 100): 85
Plant response rating, Corn (corn (Zea mays) [2]; 125 g ai/ha, scale of 0 to 100): 10
Plant response rating, Corn (corn (Zea mays) [2]; 16 g ai/ha, scale 0 to 100): 0
Plant response rating, Corn (corn (Zea mays) [2]; 31 g ai/ha, scale 0 to 100): 0
Plant response rating, Corn (corn (Zea mays) [2]; 62 g ai/ha, scale 0 to 100): 0
Plant response rating, Crabgrass, Large ([3]; 125 g ai/ha, scale of 0 to 100): 98
Plant response rating, Crabgrass, Large ([3]; 16 g ai/ha, scale 0 to 100): 75
Plant response rating, Crabgrass, Large ([3]; 31 g ai/ha, scale 0 to 100): 98
Plant response rating, Crabgrass, Large ([3]; 62 g ai/ha, scale 0 to 100): 100
Plant response rating, Foxtail, Giant ([4]; 125 g ai/ha, scale of 0 to 100): 85
Plant response rating, Foxtail, Giant ([4]; 31 g ai/ha, scale 0 to 100): 5
Plant response rating, Foxtail, Giant ([4]; 62 g ai/ha, scale 0 to 100): 60
Plant response rating, Lambsquarters ([5]; 125 g ai/ha, scale of 0 to 100): 65
Plant response rating, Lambsquarters ([5]; 31 g ai/ha, scale 0 to 100): 0
Plant response rating, Lambsquarters ([5]; 62 g ai/ha, scale 0 to 100): 0
Plant response rating, Morningglory ([6]; 125 g ai/ha, scale of 0 to 100): 20
Plant response rating, Morningglory ([6]; 31 g ai/ha, scale 0 to 100): 0
Plant response rating, Morningglory ([6]; 62 g ai/ha, scale 0 to 100): 5
Plant response rating, Nutsedge, Yellow ([7]; 125 g ai/ha, scale of 0 to 100): 0
Plant response rating, Nutsedge, Yellow ([7]; 31 g ai/ha, scale 0 to 100): 0
Plant response rating, Nutsedge, Yellow ([7]; 62 g ai/ha, scale 0 to 100): 0
Plant response rating, Oilseed Rape ([8]; 125 g ai/ha, scale of 0 to 100): 15
Plant response rating, Oilseed Rape ([8]; 31 g ai/ha, scale 0 to 100): 0
Plant response rating, Oilseed Rape ([8]; 62 g ai/ha, scale 0 to 100): 0
Plant response rating, Ryegrass, Italian ([9]; 125 g ai/ha, scale of 0 to 100): 40
Plant response rating, Ryegrass, Italian ([9]; 31 g ai/ha, scale 0 to 100): 5
Plant response rating, Ryegrass, Italian ([9]; 62 g ai/ha, scale 0 to 100): 15
Plant response rating, Soybean (soybean (Glycine max) [10]; 125 g ai/ha, scale of 0 to 100): 10
Plant response rating, Soybean (soybean (Glycine max) [10]; 31 g ai/ha, scale 0 to 100): 5
Plant response rating, Soybean (soybean (Glycine max) [10]; 62 g ai/ha, scale 0 to 100): 5
Plant response rating, Velvetleaf ([11]; 125 g ai/ha, scale of 0 to 100): 60
Plant response rating, Velvetleaf ([11]; 31 g ai/ha, scale 0 to 100): 20
Plant response rating, Velvetleaf ([11]; 62 g ai/ha, scale 0 to 100): 25
Plant response rating, Waterhemp ([12]; 125 g ai/ha, scale of 0 to 100): 100
Plant response rating, Waterhemp ([12]; 31 g ai/ha, scale 0 to 100): 85
Plant response rating, Waterhemp ([12]; 62 g ai/ha, scale 0 to 100): 100
Plant response rating, Wheat ([13]; 125 g ai/ha, scale of 0 to 100): 5
Plant response rating, Wheat ([13]; 31 g ai/ha, scale 0 to 100): 0
Plant response rating, Wheat ([13]; 62 g ai/ha, scale 0 to 100): 0
Plant response rating, Corn (corn (Zea mays) [14]; 16 g ai/ha, scale of 0 to 100): 15
Plant response rating, Corn (corn (Zea mays) [14]; 31 g ai/ha, scale 0 to 100): 15
Corn plant response rating (corn (Zea mays) [14]; 62 g ai/ha): 15
Corn plant response rating (corn (Zea mays) [14]; 125 g ai/ha): 20
Plant response rating, Crabgrass, Large ([15]; 16 g ai/ha, scale of 0 to 100): 55
Plant response rating, Crabgrass, Large ([15]; 31 g ai/ha, scale 0 to 100): 60
Crabgrass, Large plant response rating ([15]; 62 g ai/ha): 85
Crabgrass, Large plant response rating ([15]; 125 g ai/ha): 90
Plant response rating, Foxtail, Giant ([16]; 16 g ai/ha, scale of 0 to 100): 10
Plant response rating, Foxtail, Giant ([16]; 31 g ai/ha, scale 0 to 100): 10
Foxtail, Giant plant response rating ([16]; 62 g ai/ha): 10
Foxtail, Giant plant response rating ([16]; 125 g ai/ha): 20
Plant response rating, Galium ([17]; 16 g ai/ha, scale of 0 to 100): 75
Plant response rating, Galium ([17]; 31 g ai/ha, scale 0 to 100): 75
Galium plant response rating ([17]; 62 g ai/ha): 80
Galium plant response rating ([17]; 125 g ai/ha): 90
Plant response rating, Kochia (kochia (Kochia scoparia); 16 g ai/ha, scale of 0 to 100): 70
Plant response rating, Kochia (kochia (Kochia scoparia); 31 g ai/ha, scale 0 to 100): 75
Kochia plant response rating (kochia (Kochia scoparia); 62 g ai/ha): 80
Kochia plant response rating (kochia (Kochia scoparia); 125 g ai/ha): 95
Plant response rating, Oilseed Rape ([18]; 16 g ai/ha, scale of 0 to 100): 60
Plant response rating, Oilseed Rape ([18]; 31 g ai/ha, scale 0 to 100): 95
Oilseed Rape plant response rating ([18]; 62 g ai/ha): 90
Oilseed Rape plant response rating ([18]; 125 g ai/ha): 100
Plant response rating, Soybean (soybean (Glycine max) [19]; 16 g ai/ha, scale of 0 to 100): 35
Plant response rating, Soybean (soybean (Glycine max) [19]; 31 g ai/ha, scale 0 to 100): 40
Soybean plant response rating (soybean (Glycine max) [19]; 62 g ai/ha): 65
Soybean plant response rating (soybean (Glycine max) [19]; 125 g ai/ha): 70
Plant response rating, Waterhemp ([20]; 16 g ai/ha, scale of 0 to 100): 70
Plant response rating, Waterhemp ([20]; 31 g ai/ha, scale 0 to 100): 70
Waterhemp plant response rating ([20]; 125 g ai/ha, scale 0 to 100 (0 no effect, 100 complete control)): 95
